These results are taken from patent US9850183B2, “Conjugates derived from non-steroidal anti-inflammatory drugs and methods of use thereof in imaging” (Reiley Pharmaceuticals, Inc., priority 2014, dated 2017).

The target of one assay is T1, human COX-2 (Homo sapiens, UniProt P35354).
T1 construct: purchased Cayman Chemical Co., Ann Arbor, Mich., USA 701080
T1 sequence (P35354 18-604): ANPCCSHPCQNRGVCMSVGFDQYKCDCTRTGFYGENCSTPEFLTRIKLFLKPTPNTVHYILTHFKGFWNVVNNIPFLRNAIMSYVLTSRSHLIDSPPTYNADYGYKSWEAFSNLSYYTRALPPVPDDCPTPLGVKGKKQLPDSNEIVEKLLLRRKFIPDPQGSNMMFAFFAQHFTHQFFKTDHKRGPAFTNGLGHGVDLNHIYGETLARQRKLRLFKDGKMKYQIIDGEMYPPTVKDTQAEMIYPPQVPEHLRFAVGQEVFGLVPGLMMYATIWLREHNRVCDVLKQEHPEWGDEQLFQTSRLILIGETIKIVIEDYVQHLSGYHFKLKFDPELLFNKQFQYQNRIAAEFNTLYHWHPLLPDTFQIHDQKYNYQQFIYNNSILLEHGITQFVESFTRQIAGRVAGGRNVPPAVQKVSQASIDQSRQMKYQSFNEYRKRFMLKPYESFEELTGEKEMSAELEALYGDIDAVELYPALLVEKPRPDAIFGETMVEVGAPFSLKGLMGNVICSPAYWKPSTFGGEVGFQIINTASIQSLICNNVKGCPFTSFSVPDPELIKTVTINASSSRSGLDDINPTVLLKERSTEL
Put plainly: COX-2 enzyme assay (EIA kit, PGF2α readout). It is filed as biochemical. On the procedure:
The ability of compounds to inhibit ovine COX-1 and human COX-2 was determined using a commercially available enzyme immunoassay (EIA) kit (catalog no. 701090 (COX-1); 701080 (COX-2) Cayman Chemical Co., Ann Arbor, Mich., USA) according to the manufacturer's protocol. COX catalyzes the first step in the biosynthesis of AA to PGH2. PGF2α, produced from PGH2 by reduction with stannous chloride, was measured by EIA (ACE™ competitive EIA, Cayman Chemical, Ann Arbor, Mich., USA). Briefly, to a series of supplied reaction buffer solutions [960 μl 0.1 M Tris-HCl (pH 8.0) containing 5 mM EDTA and 2 mM phenol] with either COX-1 or COX-2 (10 μl) enzyme in the presence of heme (10 μl), 10 μl of various concentrations of test drug solutions were added. These solutions were incubated for 15 min at 37° C. and subsequently 10 μl AA solution (100 μM) was added. The COX reaction was stopped by the addition of 30 μl stannus chloride after 2 min, mixed immediately, supernatants were 2000 fold diluted. The produced PGF2α was measured by EIA. This assay is based on the competition between PGs and a PG-acetylcholinesterase conjugate (PG tracer) for a limited amount of PG antiserum. The amount of PG tracer that is able to bind to the PG antiserum is inversely proportional to the concentration of PGs in the wells since the concentration of the PG tracer is held at a constant while the concentration of PGs varies. The specific antiserum-PG complex bound to a mouse anti-rabbit IgG that had been previously attached to the well. The plate was washed to remove any unbound reagents and 200 μl Ellman's reagent (5,5′-dithiobis-(2-nitrobenzoic acid), which contains the substrate to acetylcholine esterase, was added to the well. The product of this enzymatic reaction generates a distinct yellow color that absorbs at 406 nm. The intensity of this color, determined by spectrophotometry, is proportional to the amount of PG tracer bound to the well, which is inversely proportional to the amount of PGs present in the well during the incubation. Percent inhibition was calculated by the comparison of the compounds treated to the various control incubations.
(§1) Dose-response curves were generated using XLFit (IDBS, Surrey, UK) or Prism (GraphPad Software, La Jolla, Calif., US) to calculate IC50 values for each compound tested.

For a further assay, the target named is T2, COX-2 (Mus musculus, UniProt Q05769).
T2 construct: endogenous in cells; host or cells: RAW264.7 murine macrophages, stimulated with LPS and IFN-g
T2 sequence (Q05769 18-604): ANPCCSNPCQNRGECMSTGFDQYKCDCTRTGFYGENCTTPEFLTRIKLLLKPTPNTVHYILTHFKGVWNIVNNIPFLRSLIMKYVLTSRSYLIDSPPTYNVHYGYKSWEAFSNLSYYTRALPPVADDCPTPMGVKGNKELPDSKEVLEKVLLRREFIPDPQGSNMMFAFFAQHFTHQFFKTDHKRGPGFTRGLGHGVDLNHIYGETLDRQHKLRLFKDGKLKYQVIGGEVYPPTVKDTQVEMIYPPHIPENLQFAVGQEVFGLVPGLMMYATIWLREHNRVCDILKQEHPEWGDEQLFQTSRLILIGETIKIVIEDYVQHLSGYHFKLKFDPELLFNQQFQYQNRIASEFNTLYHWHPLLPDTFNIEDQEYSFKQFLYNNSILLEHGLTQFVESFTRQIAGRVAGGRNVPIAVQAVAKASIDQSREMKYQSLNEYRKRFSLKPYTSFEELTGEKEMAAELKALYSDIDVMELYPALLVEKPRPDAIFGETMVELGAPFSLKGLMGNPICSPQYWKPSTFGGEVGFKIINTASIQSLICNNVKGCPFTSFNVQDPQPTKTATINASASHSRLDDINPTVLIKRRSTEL
Put plainly: Cell-based COX-2 assay (PGE2 in LPS/IFN-g stimulated RAW264.7 cells). The conditions noted are these: RAW264.7 murine macrophages, 1 μg/ml LPS and 10 U/ml IFN-g for 7 h, PGE2 readout. The method, then: RAW264.7 murine macrophages were obtained from the Cell Bank of Shanghai Institute of Biochemistry and Cell Biology, Chinese Academy of Sciences (Shanghai, China) and cultured in Dulbecco's modified Eagle's medium containing 100 U/ml penicillin and 100 μg/ml streptomycin at 37° C. in 5% CO2.
RAW264.7 cells were plated at a density of 2.5×10^5/ml cells in a 96-well plate with 0.1 ml of culture medium per well and cultured overnight. The cells were pre-incubated for 30 min with various doses of compounds and stimulated for 7 h with 1 μg/ml LPS and 10 U/ml IFN-g. The cell culture supernatants were collected immediately following treatment and centrifuged at 1,000 rpm for 5 min to remove the particulate matter. PGE2 was determined using a Prostaglandin E2 assay kit (catalog no. 62P2APEB; Cisbio Co.,). 10 μL of cell supernatant was transferred to a 384-well low volume plate (e.g. Corning® 3544), 5 μL of PGE2-d2 was added, followed by 5 μL anti-PGE2 Cryptate as a negative control. Replace the standard by 10 μL of diluent and PGE2-d2 by 5 μL of reconstitution buffer, Cal0 (for positive control), replace the standard by 10 μL of diluent. Incubate at 4° C. overnight. After centrifuging at 1,000 rpm for 1 min, the dual fluorescence emissions of 615 and 665 nm with a 320 nm excitation were measured using an Envision plate reader (Perkin Elmer, Shelton, Conn.). The results are expressed as the ratio of 665 nm/615 nm emissions.
as §1

The mark [1] stands for this setting: human COX-2 enzyme, EIA, 15 min pre-incubation at 37° C., read-out: COX-2 IC50 (μM) enzyme.

The term IC50 denotes the concentration needed to halve the response being measured.

Like-named read-outs stand apart in the source and are kept apart here.

For `COc1ccc2c(c1)c(CC(=O)NCCCCNC(=O)C[N]1C(=O)C[N]3C(=O)C[N]4C(=O)C[S][Re]143=[O])c(C)n2C(=O)c1ccc(Cl)cc1` [Compound 23], the IC50 on human COX-2 (setting [1]) amounted to 12 µM.

Turning to `COc1ccc2c(c1)c(CC(=O)NCCCCCCNC(=O)C[N]1C(=O)C[N]3C(=O)C[N]4C(=O)C[S][Re]143=[O])c(C)n2C(=O)c1ccc(Cl)cc1` [Compound 27], the IC50 on COX-2 stood at 12.7 µM; at human COX-2 (setting [1]), 0.6 µM.

As to `Cc1c(CC(=O)O)c2cc(OCCCCNC(=O)C[N]3C(=O)C[N]4C(=O)C[N]5C(=O)C[S][Re]354=[O])ccc2n1C(=O)c1ccc(Cl)cc1` [Compound 35], half-maximal inhibition against human COX-2 (IC50) required 1.6 µM.

Compound `Cc1c(CC(=O)O)c2cc(OCCCCCCNC(=O)C[N]3C(=O)C[N]4C(=O)C[N]5C(=O)C[S][Re]354=[O])ccc2n1C(=O)c1ccc(Cl)cc1` [Compound 39] returned an IC50 against human COX-2 of 1.1 µM.

For the compound `CCOC(=O)C1C[S][Re]23(=[O])[S]CC(C(=O)NCCOCCOCCNC(=O)Cc4c(C)n(C(=O)c5ccc(Cl)cc5)c5ccc(OC)cc45)[N]2CC[N]13` (stereo not drawn) [Compound 178], the results for the IC50 on COX-2 and at human COX-2 (setting [1]) were 1.8 µM and 0.2 µM, respectively.

In the case of `CCOC(=O)C1C[S][Re]23(=[O])[S]CC(C(=O)NCCCCCCNC(=O)Cc4c(C)n(C(=O)c5ccc(Cl)cc5)c5ccc(OC)cc45)[N]2CC[N]13` (stereo not drawn) [Compound 181], the values for the IC50 at COX-2 and at human COX-2 (setting [1]) were 1.5 µM and 1 µM, respectively.

As to `CCOC(=O)C1C[S][Re]23(=[O])[S]CC(C(=O)NCCCCCCCNC(=O)Cc4c(C)n(C(=O)c5ccc(Cl)cc5)c5ccc(OC)cc45)[N]2CC[N]13` (stereo not drawn) [Compound 182], the IC50 against COX-2 amounted to 0.6 µM; at human COX-2 (setting [1]), 0.8 µM.

Consider `CCOC(=O)C1C[S][Re]23(=[O])[S]CC(C(=O)NCCCCCCCCNC(=O)Cc4c(C)n(C(=O)c5ccc(Cl)cc5)c5ccc(OC)cc45)[N]2CC[N]13` (stereo not drawn) [Compound 183], for which the IC50 against COX-2 turned out to be 0.7 µM; on human COX-2 (setting [1]), 0.4 µM.

For `COc1ccc2c(c1)c(CC(=O)NCCCCCCNC(=O)C1C[S][Re]34(=[O])[S]CC(C(=O)OC(C)C)[N]3CC[N]14)c(C)n2C(=O)c1ccc(Cl)cc1` (stereo not drawn) [Compound 185], the IC50 against COX-2 is 0.5 µM; on human COX-2 (setting [1]), 1.2 µM.

`COc1ccc2c(c1)c(CC(=O)NCCNC(=O)[c-]1cccc1)c(C)n2C(=O)c1ccc(Cl)cc1.[C-]#[O+].[C-]#[O+].[C-]#[O+].[Re+]` [Compound 243]: the IC50 against COX-2 stood at 0.7 µM; at human COX-2 (setting [1]), 0.5 µM.

On to `COc1ccc2c(c1)c(CC(=O)NCCOCCNC(=O)[c-]1cccc1)c(C)n2C(=O)c1ccc(Cl)cc1.[C-]#[O+].[C-]#[O+].[C-]#[O+].[Re+]` [Compound 244], for which the IC50 against COX-2 is 1.5 µM; at human COX-2 (setting [1]) it was over 30 µM.

Take `COc1ccc2c(c1)c(CC(=O)NCCCCCCCCNC(=O)[c-]1cccc1)c(C)n2C(=O)c1ccc(Cl)cc1.[C-]#[O+].[C-]#[O+].[C-]#[O+].[Re+]` [Compound 247]: the figures for the IC50 against COX-2 and on human COX-2 (setting [1]) were 2.6 µM and 0.2 µM, respectively.

Consider `COc1ccc2c(c1)c(CC(=O)NCCOCCOCCOCCNC(=O)[c-]1cccc1)c(C)n2C(=O)c1ccc(Cl)cc1.[C-]#[O+].[C-]#[O+].[C-]#[O+].[Re+]` [Compound 248], for which the results for the IC50 against COX-2 and at human COX-2 (setting [1]) were over 30 µM and 0.2 µM, respectively.

`COc1ccc2c(c1)c(CC(=O)NCc1ccc(CNC(=O)[c-]3cccc3)cc1)c(C)n2C(=O)c1ccc(Cl)cc1.[C-]#[O+].[C-]#[O+].[C-]#[O+].[Re+]` [Compound 249]: the IC50 on COX-2 is 4.4 µM; at human COX-2 (setting [1]), 1.1 µM.

With `COc1ccc2c(c1)c(CC(=O)NCCOCCOCCNC(=O)c1ccc[cH-]1)c(C)n2C(=O)c1ccc(Cl)cc1.[C-]#[O+].[C-]#[O+].[C-]#[O+].[Re+]` [Compound 251], the IC50 against COX-2 is over 30 µM; at human COX-2 (setting [1]), 0.3 µM.

Consider `COc1ccc2c(c1)c(CC(=O)NCCCC[N+]13CC[S][Re-]14(=[O])[S]CC[N]4C(=O)C3)c(C)n2C(=O)c1ccc(Cl)cc1` (stereo not drawn) [Compound 261], for which the IC50 at COX-2 is 1.8 µM; on human COX-2 (setting [1]), 0.8 µM.

As to `COc1ccc2c(c1)c(CC(=O)NCCOCC[N+]13CC[S][Re-]14(=[O])[S]CC[N]4C(=O)C3)c(C)n2C(=O)c1ccc(Cl)cc1` (stereo not drawn) [Compound 262], the figures for the IC50 against COX-2 and against human COX-2 were 1.7 µM and 0.9 µM, respectively.

Turning to `COc1ccc2c(c1)c(CC(=O)NCCCCC[N+]13CC[S][Re-]14(=[O])[S]CC[N]4C(=O)C3)c(C)n2C(=O)c1ccc(Cl)cc1` (stereo not drawn) [Compound 263], the IC50 against COX-2 and against human COX-2 was 0.3 µM throughout.

Take `COc1ccc2c(c1)c(CC(=O)NCCCCCCCC[N+]13CC[S][Re-]14(=[O])[S]CC[N]4C(=O)C3)c(C)n2C(=O)c1ccc(Cl)cc1` (stereo not drawn) [Compound 265]: the results for the IC50 against COX-2 and at human COX-2 were 0.1 µM and 2.1 µM, respectively.

Consider `COc1ccc2c(c1)c(CC(=O)NCCCC(C)(C)NC(=O)c1ccc[cH-]1)c(C)n2C(=O)c1ccc(Cl)cc1.[C-]#[O+].[C-]#[O+].[C-]#[O+].[Re+]` [Compound 311], for which the IC50 at COX-2 was 0.4 µM.

The compound `COc1ccc2c(c1)c(CC(=O)NCCCCCC(C)(C)NC(=O)c1ccc[cH-]1)c(C)n2C(=O)c1ccc(Cl)cc1.[C-]#[O+].[C-]#[O+].[C-]#[O+].[Re+]` [Compound 313] registered an IC50 against COX-2 of 0.2 µM.

`COc1ccc2c(c1)c(CC(=O)NCCCNCCC[N+]13CC[S][Re-]14(=[O])[S]CC[N]4C(=O)C3)c(C)n2C(=O)c1ccc(Cl)cc1` (stereo not drawn) [Compound 320] displayed an IC50 against COX-2 of 5 µM.

On COX-2, `COc1ccc2c(c1)c(CCNC(=O)CC[N+]13CC[S][Re-]14(=[O])[S]CC[N]4C(=O)C3)c(C)n2C(=O)c1ccc(Cl)cc1` (stereo not drawn) [Compound 356] returned an IC50 of 1.6 µM.
